Data reported in patent US6455584B1, “Prostaglandin E1 derivatives” (Taisho Pharmaceutical Co., Ltd., priority 1999, dated 2002).

System: human vascular smooth muscle cells
Test: DNA synthesis inhibition activity of PGE1 derivatives to human vascular smooth muscle cells (3H-thymidine intake)
Type: cell-based
Conditions: for Growth inhibition rate (percent to control): concentration of the added compound 1×10^−5 M, ethanol solution, 3H-thymidine intake after culturing 24 hours, compared with vehicle-treated control; for growth inhibition activity against human vascular smooth muscle cells: summary in words of Table 1, 1×10^−5 M
Method: Determination of DNA synthesis inhibition activity of PGE1 derivatives to human vascular smooth muscle cells
On a plate with 24 wells (manufactured by Corning Co.), 1×10^4 cells/well of quintic culture cells of vascular cells derived from normal human aorta (manufactured by Kurabo Co.) were inoculated and cultured for 2 days. The medium was exchanged from the growth medium (SG2: manufactured by Kurabo Co.) to the basal medium (SB2: manufactured by Kurabo Co.), and cultured for 24 hours, to which was added the growth medium (SG2) containing an ethanol solution of the test compound. 0.01 mci/well of ^3H-thymidine (manufactured by Daiichi Chemicals Co.) was added and, after culturing for 24 hours, the cultured supernatant was removed by suction, followed by washing with a phosphate buffer solution (PBS).
5% Trichloroacetic acid (TCA) was added and, after allowing to stand at 4° C. for 20 minutes, the mixture was washed once with TCA. The mixture was washed with PBS, and dissolved in 0.5 M aqueous potassium hydroxide solution. Intake of ^3H-thymidine was determined using 20 μl of the aqueous potassium hydroxide solution dissolving the cells which incorporated ^3H-thymidine in the nucleus by means of a liquid scintillation counter (manufactured by Hewlett-Packard Co.).
Note: Compounds 7, 70 and 92 in the table are those which were prepared in Examples. The test compounds were each used as an ethanol solution (the concentration of the added compound: 1×10^−5 M), and compared with control (vehicle-treated group).

| SMILES | Growth inhibition rate (percent to control) | growth inhibition activity against human vascular smooth muscle cells |
| --- | --- | --- |
| CCCC[C@@H](C)CC(O)C#CC1C(CCCCCCC(=O)O)C(=O)C[C@H]1SCCO (stereo partly drawn) [Compound 7, (11R,17R)-11-deoxy-11-(2-hydroxyethylthio)-17,20-dimethyl-13,14-didehydro-PGE1] | 98.4% | high growth inhibition activity |
| CCCC[C@@H](C)CC(O)C#CC1C(CCCCOCC(=O)OC)C(=O)C[C@H]1SCCO (stereo partly drawn) [Compound 70, (11R,17R)-3-oxa-11-deoxy-11-(2-hydroxyethylthio)-17,20-dimethyl-13,14-didehydro-PGE1 Methyl Ester] | 95.6% | high growth inhibition activity |
| COC(=O)COCCCCC1C(=O)C[C@@H](SCCO)C1C#CC(O)C[C@H](C)CCC=C(C)C (stereo partly drawn) [Compound 92, (11R,17R)-3-oxa-11-deoxy-11-(2-hydroxyethylthio)-20-isopropylidene-17-methyl-13,14-didehydro-PGE1 Methyl Ester] | 99.3% | high growth inhibition activity |
